The source of these data is US11932658B2 (BRISTOL-MYERS SQUIBB COMPANY, priority 2016, dated 2024).

Each structure is given as a SMILES string.

The target in this test is T1, PAR4 (Homo sapiens, UniProt Q96RI0).
T1 construct: expressed in transfected cells; host or cells: HEK293 PAR4 Clone 1.2A (BMS Arctic ID 383940)
T1 sequence (Q96RI0 18-385): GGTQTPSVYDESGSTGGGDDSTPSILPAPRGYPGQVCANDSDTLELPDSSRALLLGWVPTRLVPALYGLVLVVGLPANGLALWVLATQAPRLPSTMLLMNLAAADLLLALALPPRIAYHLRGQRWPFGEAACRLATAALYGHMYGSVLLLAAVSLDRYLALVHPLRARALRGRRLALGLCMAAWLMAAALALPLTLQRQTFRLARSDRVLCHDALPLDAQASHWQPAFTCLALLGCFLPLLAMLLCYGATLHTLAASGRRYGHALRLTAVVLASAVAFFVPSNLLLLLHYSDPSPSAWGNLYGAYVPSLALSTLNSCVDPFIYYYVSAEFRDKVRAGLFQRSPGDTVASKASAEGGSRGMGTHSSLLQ
Kind of test: PAR4 FLIPR assay (antagonism of agonist peptide-induced calcium mobilization). It counts as cell-based. The essentials: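 Antagonism was taken as block of calcium mobilization evoked by the agonist peptide H-Ala-Phe(4-F)-Pro-Gly-Trp-Leu-Val-Lys-Asn-[…]-NH2, added after 30 min room-temperature compound preincubation in dye-loaded PAR4-transfected HEK293 cells (endogenous PAR1). Fluorescence was read on FDSS, with compound addition alone used as the agonist counter-screen; values come from 11-point concentration-response curves.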
A general note: Calcium flux is commonly read through the fluorescence of an indicator in the cells.
Usually IC50 stands for the concentration needed to halve the response being measured. Turning to `COc1cnc2c(-c3nc4c(C)cc5c(c4s3)OC[C@H](COC(=O)Nc3cnc(Cl)nc3)O5)cc(C)cc2n1` [Example 59, (R)-(2-(2-methoxy-7-methylquinoxalin-5-yl)-4-methyl-7,8-dihydro-[1,4]dioxino[2′,3′:3,4]benzo[1,2-d]thiazol-7-yl)methyl (2-chloropyrimidin-5-yl)carbamate], the half-maximal inhibitory concentration (IC50) was determined as 8.3 nM.
For the compound `COc1cnc2c(-c3nc4ccc5c(c4s3)C[C@](C)(CO)O5)cc(C)cc2n1` (single isomer, unassigned) [Example 188], the half-inhibitory concentration (IC50) came to 130 nM.
Under `COc1cnc2c(-c3nc4c(Cl)cc5c(c4s3)OC[C@H](COC(=O)Nc3cnc4c(c3)ncn4C)O5)cc(C)cc2n1` [Example 67, (R)-(4-chloro-2-(2-methoxy-7-methylquinoxalin-5-yl)-7,8-dihydro-[1,4]dioxino[2′,3′:3,4]benzo[1,2-d]thiazol-7-yl)methyl (3-methyl-3H-imidazo[4,5-b]pyridin-6-yl)carbamate] stands 0.6 nM; under `COc1cnc2c(-c3nc4ccc5c(c4s3)OC[C@H](COC(=O)Nc3cccnc3)O5)cc(C)cc2n1` [Example 108, (R)-(2-(2-methoxy-7-methylquinoxalin-5-yl)-7,8-dihydro-[1,4]dioxino[2′,3′:3,4]benzo[1,2-d]thiazol-7-yl)methyl pyridin-3-ylcarbamate], 1.8 nM.
The value for `COc1cnc2c(-c3nc4c(C)cc5c(c4s3)OC[C@H](COC(=O)Nc3ccncc3)O5)cc(C)cc2n1` [Example 48, (R)-(2-(2-methoxy-7-methylquinoxalin-5-yl)-4-methyl-7,8-dihydro-[1,4]dioxino[2′,3′:3,4]benzo[1,2-d]thiazol-7-yl)methyl pyridin-4-ylcarbamate] was 25 nM.
Turning to `COc1cnc2c(-c3nc4c(C(F)F)cc5c(c4s3)OC[C@H](COC(=O)Nc3ccc(C)nc3)O5)cc(C)cc2n1` [Example 80, (R)-(4-(difluoromethyl)-2-(2-methoxy-7-methylquinoxalin-5-yl)-7,8-dihydro-[1,4]dioxino[2′,3′:3,4]benzo[1,2-d]thiazol-7-yl)methyl (6-methylpyridin-3-yl)carbamate], the half-inhibitory concentration (IC50) was found to be 33 nM.
Consider `COc1cnc2c(-c3nc4cc(F)c5c(c4s3)C[C@](C)(COC(=O)Nc3cnc(OCCO)nc3)O5)cc(Cl)cc2c1` [Example 286, (R)-(2-(6-chloro-3-methoxyquinolin-8-yl)-5-fluoro-7-methyl-7,8-dihydrobenzofuro[5,4-d]thiazol-7-yl)methyl (2-(2-hydroxyethoxy)pyrimidin-5-yl)carbamate], for which the IC50 worked out at 1 nM.
In the case of `COc1cnc2c(-c3nc4cc(F)c5c(c4s3)[C@H](C)[C@@H](CO)O5)cc(C)cc2n1` [Example 238, ((7S,8S)-5-fluoro-2-(2-methoxy-7-methylquinoxalin-5-yl)-8-methyl-7,8-dihydrobenzofuro[5,4-d]thiazol-7-yl)methanol], the IC50 is 1.3 nM.
Under `COc1cnc2c(-c3nc4ccc5c(c4s3)OC[C@H](COC(=O)Nc3ccc(Br)nc3)O5)cc(C)cc2n1` [Example 109, (R)-(2-(2-methoxy-7-methylquinoxalin-5-yl)-7,8-dihydro-[1,4]dioxino[2′,3′:3,4]benzo[1,2-d]thiazol-7-yl)methyl (6-bromopyridin-3-yl)carbamate] stands 2.6 nM; under `COc1ccc(NC(=O)OC[C@H]2COc3c(ccc4nc(-c5cc(C)cc6nc(OC)cnc56)sc34)O2)cn1` [Example 104, (R)-(2-(2-methoxy-7-methylquinoxalin-5-yl)-7,8-dihydro-[1,4]dioxino[2′,3′:3,4]benzo[1,2-d]thiazol-7-yl)methyl (6-methoxypyridin-3-yl)carbamate], 1.9 nM; under `COc1cnc2c(-c3nc4c(C)cc5c(c4s3)OC[C@H](COC(=O)Nc3ccnc(C)c3)O5)cc(C)cc2n1` [Example 44, (R)-(2-(2-methoxy-7-methylquinoxalin-5-yl)-4-methyl-7,8-dihydro-[1,4]dioxino[2′,3′:3,4]benzo[1,2-d]thiazol-7-yl)methyl (2-methylpyridin-4-yl)carbamate], 0.8 nM.
The value for `COc1cnc2c(-c3nc4c(C)cc5c(c4s3)OC[C@H](COC(=O)Nc3ccc4scnc4c3)O5)cc(C)cc2n1` [Example 49, (R)-(2-(2-methoxy-7-methylquinoxalin-5-yl)-4-methyl-7,8-dihydro-[1,4]dioxino[2′,3′:3,4]benzo[1,2-d]thiazol-7-yl)methyl benzo[d]thiazol-5-ylcarbamate] was 49 nM.
Under `COc1cnc2c(-c3nc4c(C)cc5c(c4s3)OC[C@H](COC(=O)Nc3cccnc3)O5)cc(C)cc2n1` (single isomer, unassigned) [Example 5] stands 1.8 nM.
For `COc1cnc2c(-c3nc4c(C)cc5c(c4s3)OC[C@H](COC(=O)Nc3cncc(C)c3)O5)cc(C)cc2n1` [Example 57, (R)-(2-(2-methoxy-7-methylquinoxalin-5-yl)-4-methyl-7,8-dihydro-[1,4]dioxino[2′,3′:3,4]benzo[1,2-d]thiazol-7-yl)methyl (5-methylpyridin-3-yl)carbamate], the IC50 is 9.7 nM.
Under `COc1cnc2c(-c3nc4c(C)cc5c(c4s3)OC[C@H](COC(=O)Nc3ccc(Cl)nc3)O5)cc(C)cc2n1` [Example 47, (R)-(2-(2-methoxy-7-methylquinoxalin-5-yl)-4-methyl-7,8-dihydro-[1,4]dioxino[2′,3′:3,4]benzo[1,2-d]thiazol-7-yl)methyl (6-chloropyridin-3-yl)carbamate] stands 1.2 nM; under `COc1cnc2c(-c3cc4c5c(cc(C)c4o3)O[C@@H](COC(=O)Nc3ccc(C)nc3)CO5)cc(C)cc2n1` [Example 14, (R)-(8-(2-methoxy-7-methylquinoxalin-5-yl)-6-methyl-2,3-dihydro-[1,4]dioxino[2,3-e]benzofuran-3-yl)methyl (6-methylpyridin-3-yl)carbamate], 2.9 nM; under `COc1cnc2c(-c3cc4c5c(ccc4o3)O[C@@H](COC(=O)Nc3ccnc(C)c3)CO5)cc(C)cc2n1` [Example 12, (R)-(8-(2-methoxy-7-methylquinoxalin-5-yl)-2,3-dihydro-[1,4]dioxino[2,3-e]benzofuran-3-yl)methyl (2-methylpyridin-4-yl)carbamate], 3.8 nM.
Under `COc1cnc2c(-c3nc4c(Cl)cc5c(c4s3)OC[C@H](COC(=O)Nc3ccc4ncsc4c3)O5)cc(C)cc2n1` [Example 40, (R)-(4-chloro-2-(2-methoxy-7-methylquinoxalin-5-yl)-7,8-dihydro-[1,4]dioxino[2′,3′:3,4]benzo[1,2-d]thiazol-7-yl)methyl benzo[d]thiazol-6-ylcarbamate] stands 97 nM.
Under `COc1cnc2c(-c3nc4cc(F)c5c(c4s3)C[C@H](COC(=O)Nc3cccc(C(=O)N(C)C)c3)O5)cc(C)cc2n1` [Example 203, (R)-(5-fluoro-2-(2-methoxy-7-methylquinoxalin-5-yl)-7,8-dihydrobenzofuro[5,4-d]thiazo 1-7-yl)methyl (3-(dimethylcarbamoyl)phenyl)carbamate] stands 2.3 nM; under `COc1cnc2c(-c3nc4ccc5c(c4s3)C[C@@H](CNC(=O)OCc3ccccc3)O5)cc(C)cc2n1` [Example 225, (S)-benzyl ((2-(2-methoxy-7-methylquinoxalin-5-yl)-7,8-dihydrobenzofuro[5,4-d]thiazol-7-yl)methy 1)carbamate], 0.6 nM.
`COc1cnc2c(-c3nc4cc(F)c5c(c4s3)C[C@@H](CNC(=O)OC3CCOCC3)O5)cc(C)cc2n1` [Example 245, (S)-tetrahydro-2H-pyran-4-yl ((5-fluoro-2-(2-methoxy-7-methylquinoxalin-5-yl)-7,8-dihydrobenzofuro[5,4-d]thiazol-7-yl)methyl)carbamate]: the half-inhibitory concentration (IC50) turned out to be 24 nM.
The value for `COc1cnc2c(-c3nc4cc(F)c5c(c4s3)C[C@](C)(COC(=O)Nc3cnc(C)nc3)O5)cc(C)cc2n1` [Example 182, (R)-(5-fluoro-2-(2-methoxy-7-methylquinoxalin-5-yl)-7-methyl-7,8-dihydrobenzofuro[5,4-d]thiazol-7-yl)methyl (2-methylpyrimidin-5-yl)carbamate] was 2.6 nM; that for `COc1cnc2c(-c3nc4c(C)cc5c(c4s3)OCC(COC(=O)Nc3ccc(O)nc3)O5)cc(C)cc2n1` (centres unmarked) [Example 123, (2-(2-methoxy-7-methylquinoxalin-5-yl)-4-methyl-7,8-dihydro-[1,4]dioxino[2′,3′:3,4]benzo [1,2-d]thiazol-7-yl)methyl (6-hydroxypyridin-3-yl)carbamate] was 18 nM.
The value for `COc1cnc2c(-c3nc4ccc5c(c4s3)C[C@@H](CNC(=O)OCc3ccncc3)O5)cc(C)cc2n1` [Example 233, (S)-pyridin-4-ylmethyl ((2-(2-methoxy-7-methylquinoxalin-5-yl)-7,8-dihydrobenzofuro[5,4-d]thiazol-7-yl)methy 1)carbamate] was 6.6 nM; that for `COc1cnc2c(-c3nc4cc(F)c5c(c4s3)C[C@H](COC(=O)Nc3cc(F)cc(C#N)c3)O5)cc(C)cc2n1` [Example 179, (R)-(5-fluoro-2-(2-methoxy-7-methylquinoxalin-5-yl)-7,8-dihydrobenzofuro[5,4-d]thiazo 1-7-yl)methyl (3-cyano-5-fluorophenyl)carbamate] was 2.4 nM; that for `COc1cnc2c(-c3nc4ccc5c(c4s3)C(C)C(CO)O5)cc(C)cc2n1` (centres unmarked) [Example 189, (2-(2-methoxy-7-methylquinoxalin-5-yl)-8-methyl-7,8-dihydrobenzofuro[5,4-d]thiazol-7-yl)methanol] was 11 nM.
